Laboratory results reported in patent publication US10253341B2, “Mutant sugar isomerase with improved activity, derived from E. coli, and production of L-gulose using the same” (priority 2014, dated 2019).

What was measured:
Assay type in all cases: biochemical
[1] = target: Escherichia coli O157:H7 sugar isomerase (EcSI, SEQ ID NO: 3) variant T56M (Escherichia coli, UniProt A0A6M7H989, T56M)
[2] = target: Escherichia coli O157:H7 sugar isomerase (EcSI), wild type, SEQ ID NO: 3 (Escherichia coli, UniProt A0A6M7H989)
[3] = target: Escherichia coli O157:H7 sugar isomerase (EcSI, SEQ ID NO: 3) variant M92L (Escherichia coli, UniProt A0A6M7H989, M92L)
[4] = target: Escherichia coli O157:H7 sugar isomerase (EcSI, SEQ ID NO: 3) variant I112C T56M M92L (Escherichia coli, UniProt A0A6M7H989, I112C/M92L/T56M)
[5] = target: Escherichia coli O157:H7 sugar isomerase (EcSI, SEQ ID NO: 3) variant I112C (Escherichia coli, UniProt A0A6M7H989, I112C)
[6] = target: Escherichia coli O157:H7 sugar isomerase (EcSI, SEQ ID NO: 3) variant I112C T56M (Escherichia coli, UniProt A0A6M7H989, I112C/T56M)

## OCC1(O)OC[C@H](O)[C@@H](O)[C@@H]1O (stereo partly drawn) [L-sorbose]
[1]
  kcat: 101 S^−1
  kcat/Km: 0.85 mM^−1S^−1
[2]
  kcat: 84 S^−1
  kcat/Km: 0.63 mM^−1S^−1
[3]
  kcat: 105 S^−1
  kcat/Km: 0.70 mM^−1S^−1
[4]
  kcat: 245 S^−1
  kcat/Km: 2.28 mM^−1S^−1
[5]
  kcat: 88 S^−1
  kcat/Km: 0.92 mM^−1S^−1
[6]
  kcat: 144 S^−1
  kcat/Km: 1.53 mM^−1S^−1
